Data on one compound can be found in US12678445B2, “Methods for treating glioblastoma” (BOARD OF REGENTS, THE UNIVERSITY OF TEXAS SYSTEM, priority 2020, dated 2026).

The test system of experiment [1] is murine GBM cell lines (GL261). Kind of experiment: GBM (GL261) tumor bearing mice: tumor growth and survival. Type of experiment: in vivo. Conditions: FIG. 4. The text has this: (§1) To test this hypothesis, the inventors crossed LysM^cre (Jackson Laboratory. 004781) and KDm6B^fl/fl (Jackson Laboratory, 029615) mice to generate LysM^creKDm6B^fl/fl mice. The inventors inoculated murine GBM cell lines (GL261) into the LysM^creKDm6B^fl/fl mice (FIG. 5). […] The pre-clinical data provide a strong rationale of testing KDM6B inhibitor in clinic in combination with immune checkpoint therapy.

A further experiment deals with myeloid cells. Kind of experiment: Macrophage / myeloid cell phenotype in GBM tumor bearing mice. Type of experiment: in vivo. The note with it: compared with myeloid specific depletion of KDM6B (increasing type I and type II IFN responses and antigen presenting pathways).
Excerpt: as §1

Turning to `CCOC(=O)CCNc1cc(N2CCc3ccccc3CC2)nc(-c2ccccn2)n1` [GSK-J4], in experiment [1], the survival result was “improved survival” and the tumor growth result is “attenuated tumor growth”. The “changes of macrophage phenotype” value in the experiment with myeloid cells is recorded as “could recapitulate the changes of macrophage phenotype”.
